Reference: patent publication US9958451B2, “Near-infrared fluorescent dyes with large stokes shifts” (Portland State University, priority 2011, dated 2018)
Where “and” joins values, the source holds several entries; their conditions need not be identical. Equal values may be shown once. Marks after values point to notes of the source that are not given here. Blank lines part the entries; values can stand above or below the compound they belong to.

Tests used:
[1] = Spectral properties of rhodamine bis-boronic acids and precursors in DMSO:buffer; assay type: physicochemical; parameters: Brightness: scale not given here
Description: Characterization: The spectral properties of compounds 50-53 were determined. Absorption and fluorescence spectra of solutions of the rhodamine bis-boronic acids 51 and 53, and their respective precursors 50 and 52, are shown in FIGS. 27A-C (in DMSO:buffer 1:9) and 27D-F (DMSO:buffer 1:1). […] Excitation and emission spectra were normalized to their absorbance at the excitation wavelength, and are proportional to quantum yield.

[2] = UV-visible absorbance spectroscopy, 15 μM in 90% aqueous, 10% DMSO; assay type: physicochemical; conditions: for Red shift of absorption spectra from 3-1 transposition versus known regiochemistry: depending on the ionization state
Description: Compounds 21 and 7 were characterized by UV-visible spectroscopy (FIG. 15). Absorbance was measured using 15 μM solutions of each compound in a solution that was 90% aqueous, 10% DMSO. The peaks at 600 nm (light dashed line) and 675 nm (light solid line) represent the dianions of compounds 21 and 7, respectively, in NaOH (pH 12). The peaks at 590 nm (heavy dashed line) and 650 nm (heavy solid line) represent a mix of mono- and dianions of compound 21 at pH 7.4 and predominantly monoanions of compound 7 at pH 9, respectively.
Compounds 22 and 8 were characterized by UV-visible spectroscopy (FIG. 16). Absorbance was measured using 15 μM solutions of each compound in a solution that was 90% aqueous, 10% DMSO. The peaks at 610 nm (light dashed line) and 685 nm (light solid line) represent the anions of compounds 22 and 8, respectively, in NaOH (pH 12). The peaks at 605 nm (heavy dashed line) and 805 nm (heavy solid line) represent the neutral forms of compounds 22 and 8 at pH 7.4, respectively.
Compounds 20a and 15a were characterized by UV-visible spectroscopy (FIG. 17). Absorbance was measured using 15 μM solutions of each compound in a solution that was 90% aqueous, 10% DMSO. The peaks at 545 nm (light dashed line) and 595 nm (light solid line) represent the respective anions, compounds 20c and 15h, in NaOH (pH 12).
Compound 15b (free amino) was characterized by UV-visible spectroscopy (FIG. 18), and compared to C.SNARF-5 (literature, SNARF=seminaphthorhodafluor). Absorbance was measured using a 15 μM solution of compound 15b in a solution that was 90% aqueous, 10% DMSO. The peak at 535 nm (heavy line) represents the predominantly phenolic form of 15b at pH 6. The peak at 615 nm (light line) represents the phenoxide of compound 15b at in NaOH (pH12). In comparison, C.SNARF-5 produces a peak at 550 nm (anionic form) and a peak at 485 nm (neutral form) (Whitaker et al., Anal. Biochem. 1991, 194, 330-344).
Absorbance was measured using 15 μM solutions of compound 15d in a solution that was 90% aqueous, 10% DMSO. The peak at 570 nm (heavy line) represents the predominantly neutral form of 15d at pH 6. The peak at 630 nm (light line) represents the phenoxide of compound 15d in NaOH (pH 12).
Compounds 20b and 15g were characterized by UV-visible spectroscopy (FIG. 20). Absorbance was measured using 15 μM solutions of each compound in a solution that was 90% aqueous, 10% DMSO. The peaks at 540 nm (dashed line) and 570 nm (solid line) represent the cations of compounds 20b and 15g, respectively, at pH 7.4.

[3] = Fluorescence emission spectra, 15 μM in 90% aqueous, 10% DMSO; assay type: physicochemical; conditions: for Red-shifted emission from 3-1 transposition versus known regiochemistry: longest wavelength-emitting species
Description: Compounds 21 and 7 also were characterized by their fluorescence emission spectra. Fluorescence was measured using 15 μM solutions of each compound in a solution that was 90% aqueous, 10% DMSO. For compound 21, the longest wavelength emission observed from the dianions occurred near 680 nm at pH 9. For compound 7 (transposed), the longest wavelength emission observed from the monoanion occurred near 800 nm at pH 9.
Compounds 22 and 8 also were characterized by their fluorescence emission spectra. Fluorescence was measured using 15 μM solutions of each compound in a solution that was 90% aqueous, 10% DMSO For compound 22, the longest wavelength emission observed from the anion occurred near 690 nm at pH 9. […] Given the greater than 800 nm absorbance peak and the typically large Stokes shifts observed in this class of compounds, it is likely that the emission was beyond the working range of the instrument (>850 nm).
Compounds 20 and 15a also were characterized by their fluorescence emission spectra. Fluorescence was measured using 15 μM solutions of each compound in a solution that was 90% aqueous, 10% DMSO. For compound 20a, the longest wavelength emission observed from its corresponding anion, compound 20c, occurred near 640 nm in NaOH (pH 12). For compound 15a (transposed), the longest wavelength emission observed from the corresponding anion, compound 15h, occurred near 760 nm in NaOH.
Compound 15b also was characterized by its fluorescence emission spectrum and compared to C.SNARF-5. Fluorescence was measured using a 15 μM solution of compound 15b in a solution that was 90% aqueous, 10% DMSO. For C.SNARF-5, the longest wavelength emission observed from the anion occurred near 632 nm (Whitaker et al., Anal. Biochem. 1991, 194, 330-344). For compound 15b (transposed), the longest wavelength emission observed from the phenoxide occurred near 770 nm.
Fluorescence was measured using a 15 μM solution of compound 15d in a solution that was 90% aqueous, 10% DMSO. […] For compound 15d (transposed), the longest wavelength emission observed from the phenoxide occurred near 780 nm (NaOH, pH 12).
Compounds 20b and 15g also were characterized by their fluorescence emission spectra. Fluorescence was measured using 15 μM solutions of each compound in a solution that was 90% aqueous, 10% DMSO. For compound 20b, the longest wavelength emission observed from the cation occurred near 640 nm at pH 7.4. For compound 15g (transposed), the longest wavelength emission observed from the cation occurred near 770 nm at pH 7.4.

[4] = Absorbance and fluorescence in methanol; assay type: physicochemical
Description: Absorbance and fluorescence of compounds 22 and 8 also were measured in methanol. […] Thus, placement of the hydroxyl group proximal to the xanthene internal oxygen in compound 8 produced a bathochromic shift of 103 nm in the absorption spectrum. The transposition also imparted a corresponding shift in the excitation spectrum, and a large bathochromic shift of 128 nm in the fluorescence emission. Importantly, compound 8 absorbs and emits in the near-infrared with absorption and emission maxima of 701 nm and 816 nm, respectively.
Absorbance and fluorescence of compounds 20a and 15a also were measured in methanol. […] Thus, placement of the hydroxyl group proximal to the xanthene internal oxygen in compound 15a produced a bathochromic shift of 15 nm in the absorbance spectrum. The transposition also imparted a corresponding shift in the excitation spectrum, and a large bathochromic shift of 32 nm in the fluorescence emission.

[5] = Emission in blood (whole porcine blood in buffer)
Description: Compound 15d (Table 1) was diluted to 40 μM in 50% DMSO:50% 25 mM pH 9 phosphate buffer. […] Emission remained stable for at least 1 hr. The absorption profile matches the output of a laser pointer (635-670 nm; max output <5 mW).
Its absorbance and fluorescence spectra faded over time, but remained visible after about an hour (although with only 10-20% of its original emission intensity). Molecular modeling has shown favorable structural interactions of compounds 5f and 24 with glutathione (FIG. 12—compound 24).
Spectral behavior of compound 15g (type [c] annulated seminaphtho-rhodamine methyl ester (free amine) with the 3-1 transposition) was investigated to determine its potential for sensing use in whole blood. Solutions of compound 15g in 10% or 90% by volume whole blood (porcine blood in Na-EDTA, Lampire Biological Laboratories) were investigated in a 3×3 mm cell. The fluorophore was first dissolved in 50 mM, pH 7.4 phosphate buffer to ensure complete dissolution, and in the case of 90% whole blood, this stock solution was mixed with whole blood in a 1:9 ratio. In the case of 10% whole blood, 1 part whole blood was added to 9 parts of an appropriately diluted (with deionized water) solution of compound 15g stock. In both cases, the final concentration of compound 15g was 150 μM with a final phosphate buffer concentration of 5 mM. […] Throughout much of the spectrum, the dye produces a greater absorbance than the blood alone. The change in absorbance between the two spectra provides the effective absorbance of the dye. […] The broad absorption and large Stokes shift of this dye allows significant excitation with greater than 50% efficiency at wavelengths beyond that of the major hemoglobin peaks in blood.

[6] = DMSO:buffer 1:1, pH 7.4 phosphate buffer 12.5 mM
[7] = DMSO:buffer 1:9, pH 7.4 phosphate buffer 12.5 mM
[8] = NaOH (pH 12), anionic/phenoxide form, 90% aqueous 10% DMSO
[9] = pH 6, predominantly neutral/phenolic form
[10] = 40 μM in 50% DMSO:50% 25 mM pH 9 phosphate buffer

Quantum yield ([1]; DMSO buffer 1:9): 10% | Brightness ([1]; DMSO:buffer 1:1): 121^g | Em ([1]; DMSO:buffer 1:1): 676 nm | Ex ([1]; DMSO:buffer 1:1): 596 nm | Q.Y. ([1]; DMSO:buffer 1:1): 0.11 | ε ([1]; DMSO:buffer 1:1): 1081 M⁻¹ cm⁻¹ | Abs [1, 6]: 602 nm | Brightness ([1]; DMSO:buffer 1:9): 1144^d | Em ([1]; DMSO:buffer 1:9): 668 nm | Ex ([1]; DMSO:buffer 1:9): 584 nm | Q.Y. ([1]; DMSO:buffer 1:9): 0.10 | ε ([1]; DMSO:buffer 1:9): 11994 M⁻¹ cm⁻¹ | Abs [1, 7]: 578 nm
Structure (SMILES): N=c1ccc2c(ccc3c(-c4ccccc4C(=O)O)c4ccc5cc(N)ccc5c4oc32)c1 [Compound 52, naphthorhodamine]

Red shift of absorption spectra from 3-1 transposition versus known regiochemistry ([2]; 90% aqueous 10% DMSO): 50-65 nm | Absorbance peak [2, 8]: 615 nm | Absorbance peak [2, 9]: 535 nm | Enhancement of the Stokes shift by 3-1 transposition [3]: about 73 nm | Stokes shift [3]: about 155 nm | Red-shifted emission from 3-1 transposition versus known regiochemistry [3]: about 138 nm | Longest wavelength emission ([3]; pH not stated): ~770 nm
Structure (SMILES): COC(=O)c1ccccc1-c1c2ccc(=N)cc-2oc2c1ccc1cccc(O)c12 [Compound 15b]

Absorbance peak [2, 8]: 610 nm | Absorbance peak ([2]; pH 7.4, 90% aqueous 10% DMSO): 605 nm | Stokes shift [3]: about 80 nm | Longest wavelength emission ([3]; pH 9): ~690 nm | Absorption maximum [4]: 598 nm | Emission maximum [4]: 688 nm
Structure (SMILES): COC(=O)c1ccccc1-c1c2ccc3cc(O)ccc3c2oc2c1ccc1cc(=O)ccc12 [Compound 22, naphthofluorescein methyl ester]

Red shift of absorption spectra from 3-1 transposition versus known regiochemistry ([2]; 90% aqueous 10% DMSO): 10-55 nm | Absorbance peak [2, 9]: 525 nm | Absorption maximum [4]: 501 nm and 536 nm | Bathochromic shift in the absorption spectrum versus known regiochemistry [4]: 15 nm | Bathochromic shift in the fluorescence emission versus known regiochemistry [4]: 32 nm | Emission maximum [4]: 582 nm
Structure (SMILES): COC(=O)c1ccccc1-c1c2ccc(=O)cc-2oc2c1ccc1cccc(O)c12 [Compound 15a]

Absorbance peak [2, 8]: 600 nm | Absorbance peak ([2]; pH 7.4, 90% aqueous 10% DMSO): 590 nm | Stokes shift [3]: about 80 nm | Longest wavelength emission ([3]; pH 9): ~680 nm
Structure (SMILES): O=C1OC2(c3ccccc31)c1ccc3cc(O)ccc3c1Oc1c2ccc2cc(O)ccc12 [Compound 21, Naphthofluorescein, reference compound]

Absorbance peak [2, 9]: 515 nm | Absorption maximum [4]: 487 nm and 521 nm | Emission maximum [4]: 550 nm
Structure (SMILES): COC(=O)c1ccccc1-c1c2ccc(=O)cc-2oc2c1ccc1cc(O)ccc12 [Compound 20a]

λmax em [5, 10]: ~790 nm | λmax ex [5, 10]: ~690 nm | Time emission remained stable ([5]; 5% whole blood): at least 1 hr | Loss of fluorescence on inclusion of whole blood ([5]; final blood concentration 5% by volume): only minimal loss of fluorescence | Red shift of absorption spectra from 3-1 transposition versus known regiochemistry ([2]; 90% aqueous 10% DMSO): 55-57 nm | Absorbance peak [2, 8]: 630 nm | Absorbance peak [2, 9]: 570 nm | Enhancement of the Stokes shift by 3-1 transposition [3]: about 92 nm | Stokes shift [3]: about 150 nm | Longest wavelength emission ([3]; NaOH (pH 12), anion/phenoxide): ~780 nm | Red-shifted emission from 3-1 transposition versus known regiochemistry [3]: about 149 nm
Structure (SMILES): COC(=O)c1ccccc1-c1c2ccc(=[N+](C)C)cc-2oc2c1ccc1cccc(O)c12 [Compound 15d]

Quantum yield ([1]; DMSO buffer 1:9): 19% | Red shift of maximum absorption compared to rhodamine 110 ([1]; DMSO buffer 1:9): 40 nm | Red shift of maximum emission compared to rhodamine 110 ([1]; DMSO buffer 1:9): ~100 nm | Brightness ([1]; DMSO:buffer 1:1): 6298 | Em ([1]; DMSO:buffer 1:1): 630 nm | Ex ([1]; DMSO:buffer 1:1): 542 nm | Q.Y. ([1]; DMSO:buffer 1:1): 0.30 | ε ([1]; DMSO:buffer 1:1): 21064 M⁻¹ cm⁻¹ | Abs [1, 6]: 542 nm | Brightness ([1]; DMSO:buffer 1:9): 8083 | Em ([1]; DMSO:buffer 1:9): 628 nm | Ex ([1]; DMSO:buffer 1:9): 534 nm | Q.Y. ([1]; DMSO:buffer 1:9): 0.19 | ε ([1]; DMSO:buffer 1:9): 42701 M⁻¹ cm⁻¹ | Abs [1, 7]: 535 nm
Structure (SMILES): N=c1ccc2c(-c3ccccc3C(=O)O)c3ccc4cc(N)ccc4c3oc-2c1 [Compound 50, seminaphthorhodamine]

Structure (SMILES): Cc1ccc(C)c(-c2c3ccc4cccc(O)c4c3oc3c2ccc2cccc(=O)c23)c1 [Compound 4a]
Stability of absorption in the blood solution ([5]; blood solution): remained stable over extended periods of time

Absorbance peak [2, 8]: 545 nm | Stokes shift [3]: about 95 nm | Longest wavelength emission ([3]; NaOH (pH 12), anion/phenoxide): ~640 nm
Structure (SMILES): COC(=O)c1ccccc1-c1c2ccc(=O)cc-2oc2c1ccc1cc(O)ccc12 [Compound 20c]

Structure (SMILES): COC(=O)c1ccccc1-c1c2ccc(=N)cc-2oc2c1ccc1cc(N)ccc12 [Compound 20b]
Absorbance peak ([2]; pH 7.4, 90% aqueous 10% DMSO): 540 nm | Stokes shift [3]: about 100 nm | Longest wavelength emission ([3]; pH 7.4, cation): ~640 nm
